The test system of experiment [1] is LPS-induced TNFα in monocyte-derived macrophages. The experiment can be described thus: MdM assay: LPS-triggered TNFα (ELISA). The experiment is classed as cell-based, human. The protocol:
This assay evaluates illustrative compounds of the invention for their inhibition of LPS-induced TNFα and LPS triggered IL-10 secretion in monocyte-derived macrophages. PBMCs are isolated from human blood samples (buffycoats). The buffy coat is aseptically transferred into a 50 mL Falcon tube, and diluted 1/2 in PBS. Falcon tubes are filled with 20 mL LymphoprepTM, on top of which 25 mL of the buffy coat is carefully added, tubes are centrifuged for 35 min at 400 g in temperature controlled centrifuge, without brake, at 25° C. PBMCs are aspirated from the white interface layer between sample and LymphoprepTM. PBMCs are washed five times in PBS. […] PBMCs are centrifuged at 300×g for 10 min and resuspended at a density of 1.0*10^7 cells/80 μL Miltenyi buffer (PBS, pH 7.4, 1% FBS, 2 mM EDTA). Starting from this point of the protocol all steps are performed on ice. 20 μL of CD14+ micro-beads are added per 1.0*10^7 cells, the tube is mixed and incubated for 15 min in the fridge at 4° C. Cell suspension volume is adjusted to total volume of 100 mL using Miltenyi buffer, mixed gently and subsequently centrifuged for 10 min at 300×g. Supernatant is discarded and cell pellet is resuspended in 12 mL of Miltenyi buffer. Four LS columns are placed in the MACS Separator (magnet) from Miltenyi Biotec, and are prewet by rinsing with 3 mL of MACS buffer per column. Three mL of cell suspension is added onto the column (max 1*10^8 of labelled cells/column), and columns are subsequently washed 3 times with 3 mL of Miltenyi buffer. The columns are removed from the magnets, and 5 mL of Miltenyi buffer are added to the column to flush out the CD14+ fraction by pushing the plunger into the column. The flushed fractions are collected in a fresh 50 mL Falcon and volume is adjusted to 30 mL using Miltenyi buffer, cells are centrifuged for 10 min at 300×g. The obtained cell pellet is resuspended in 10 mL RPMI w/o FBS, and cell density is determined using a hematologic analyser (Sysmex XS-500i). […] On day 10, MdMs are triggered and compound is added. A compound dilution plate is made in 100% DMSO by 3-fold dilution of 10 mM stock solution. An intermediate dilution plate (10× final concentration) is made by diluting the compound dilution plate […] in RPMI medium. Medium is carefully removed from cell plates using multichannel pipette, and replaced by 80 μL fresh medium. 10 μL of the 10× final concentration compound is added to the cells and incubated for 1 hour at 37° C. before addition of trigger. No trigger conditions/trigger conditions are spiked with equal final DMSO concentrations of 0.2% DMSO. 10 μL of 10×LPS (final conc. 200 ng/mL) solution are added to all wells except for the 'no trigger wells' where 10 μL medium is added. Supernatant is collected after 2 h (IL-10 determination) and after 20 h (TNFα determination) of LPS triggering. […] The plate is then washed once with PBST (PBS+0.05% Tween20) and once with PBS followed by the addition of 100 μL of blocking buffer (1% Bovine Serum Albumin (BSA) -5% Sucrose) and plates are sealed and incubated for at least 4 h at RT. After washing the plate once with PBST and once with PBS, 40 μL of standard or sample are added (TNFα standard curve is prepared using a 1/2 serial dilution starting from 16000 pg/mL; dilutions are made in dilution buffer (PBS+1% BSA)). Plates are washed twice with PBST, and once with PBS, after which 35 μL of the detection antibody is added (final concentration 0.25 μg/mL diluted in dilution buffer) and plates are incubated for at least 2 h at RT. Plates are washed twice with PBST, and once with PBS, where after 35 μL of Strep-HRP conjugate (0.5 μg/mL final concentration diluted in dilution buffer) is added. […] Plates are washed twice with PBST, and once with PBS. Thereafter, 50 μL of luminol substrate is added to each well (prepared according to manufacturer's instructions), and incubated for 5 min at RT protected from light.
On the technique in general: ELISA stands for enzyme-linked immunosorbent assay.

In experiment [2] the target is T1, SIK1 (Homo sapiens, UniProt P57059).
T1 construct: purchased Carna Biosciences 02-131
The experiment can be described thus: ADP-Glo kinase assay, SIK1. The experiment is classed as biochemical. Put shortly: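 Each SIK isoform is incubated with substrate and ATP for 2 h at room temperature, after which residual ATP is depleted and the ADP formed is quantified by luminescence.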
In general terms: In ADP-Glo the light output rises with the ADP produced.

[3] abbreviates: Macrophage, human MdM, LPS 200 ng/mL, supernatant after 20 h, inhibition of TNFα, read-out: TNFα EC50.
[4] abbreviates: human MdM, LPS 200 ng/mL, supernatant after 20 h, inhibition of TNFα, read-out: TNFα EC50.
[5] abbreviates: ADP-Glo, AMARA 45 μM, 5 μM ATP, 120 min, average IC50.
Where [6] appears, read: Homo sapiens, Macrophage, 20 h, read-out: TNFα EC50 (nM).

Like-named read-outs stand apart in the source and are kept apart here.

T1 sequence (P57059 whole entry): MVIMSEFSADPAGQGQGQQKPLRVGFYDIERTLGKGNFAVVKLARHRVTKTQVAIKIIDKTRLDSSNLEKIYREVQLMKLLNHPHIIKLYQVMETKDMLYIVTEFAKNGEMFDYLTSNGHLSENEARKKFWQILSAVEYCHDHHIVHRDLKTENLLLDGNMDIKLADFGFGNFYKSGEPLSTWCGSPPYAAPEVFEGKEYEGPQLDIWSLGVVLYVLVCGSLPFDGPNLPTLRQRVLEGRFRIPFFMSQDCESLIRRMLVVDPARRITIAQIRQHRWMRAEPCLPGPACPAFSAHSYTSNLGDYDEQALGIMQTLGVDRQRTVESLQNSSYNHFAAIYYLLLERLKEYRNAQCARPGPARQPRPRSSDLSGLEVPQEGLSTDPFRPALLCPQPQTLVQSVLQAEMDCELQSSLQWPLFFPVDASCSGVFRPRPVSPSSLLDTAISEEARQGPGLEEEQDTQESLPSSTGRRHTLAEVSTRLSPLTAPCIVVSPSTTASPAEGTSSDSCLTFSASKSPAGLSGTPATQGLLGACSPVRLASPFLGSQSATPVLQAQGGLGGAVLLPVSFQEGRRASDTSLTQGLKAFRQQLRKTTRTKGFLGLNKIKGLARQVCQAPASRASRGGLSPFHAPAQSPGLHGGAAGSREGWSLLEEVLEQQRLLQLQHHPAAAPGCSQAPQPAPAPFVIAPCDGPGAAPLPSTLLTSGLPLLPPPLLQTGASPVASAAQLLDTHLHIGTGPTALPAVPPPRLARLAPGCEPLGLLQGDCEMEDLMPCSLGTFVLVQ

Consider `COc1cc(-c2cnc3cc([C@@](C)(O)C4CC4)ccn23)cc(OC(F)F)c1C(=O)NC1CC1` (single isomer, unassigned) [Cpd 162, N-cyclopropyl-4-[7-(1-cyclopropyl-1-hydroxy-ethyl)imidazo[1,2-a]pyridin-3-yl]-2-(difluoromethoxy)-6-methoxy-benzamide], for which the EC50 in experiment [1] (setting [3]) lay within 100 to 1000 nM. This compound returned a half-maximal inhibitory concentration (IC50) in experiment [2] above 500 nM. As for `COc1cc(-c2cnc3cc([C@@](C)(O)C4CC4)ccn23)cc(OC(F)F)c1C(=O)NC1CC1` (single isomer, unassigned) [Cpd 163, N-cyclopropyl-4-[7-(1-cyclopropyl-1-hydroxy-ethyl)imidazo[1,2-a]pyridin-3-yl]-2-(difluoromethoxy)-6-methoxy-benzamide], the EC50 in experiment [1] (setting [4]) lay within 100 to 1000 nM. Moreover, in experiment [2] (setting [5]), the IC50 is above 500 nM. With `CC[C@](C)(O)c1ccn2c(-c3cc(OC)c(C(=O)NC4CC4)c(OC(F)F)c3)cnc2c1` (single isomer, unassigned) [Cpd 164, N-cyclopropyl-2-(difluoromethoxy)-4-[7-(1-hydroxy-1-methyl-propyl)imidazo[1,2-a]pyridin-3-yl]-6-methoxy-benzamide], the EC50 in experiment [1] (setting [3]) lay in the range of 100 to 1000 nM. The IC50 in experiment [2] was above 500 nM. Regarding `CC[C@](C)(O)c1ccn2c(-c3cc(OC)c(C(=O)NC4CC4)c(OC(F)F)c3)cnc2c1` (single isomer, unassigned) [Cpd 165, N-cyclopropyl-2-(difluoromethoxy)-4-[7-(1-hydroxy-1-methyl-propyl)imidazo[1,2-a]pyridin-3-yl]-6-methoxy-benzamide], the 50% effective concentration (EC50) in experiment [1] (setting [4]) lay within 100 to 1000 nM. Further, the IC50 in experiment [2] (setting [5]) is above 500 nM. With `COc1cc(-c2cnc3cc([C@@](C)(C#N)CO)ccn23)cc(OC(F)F)c1C(=O)NC1CC1` (single isomer, unassigned) [Cpd 189, 4-[7-(1-cyano-2-hydroxy-1-methyl-ethyl)imidazo[1,2-a]pyridin-3-yl]-N-cyclopropyl-2-(difluoromethoxy)-6-methoxy-benzamide], the EC50 in experiment [1] (setting [3]) lay within 1000 to 5000 nM. The IC50 in experiment [2] is above 500 nM. Take `COc1cc(-c2cnc3cc([C@@](C)(C#N)CO)ccn23)cc(OC(F)F)c1C(=O)NC1CC1` (single isomer, unassigned) [Cpd 190, 4-[7-(1-cyano-2-hydroxy-1-methyl-ethyl)imidazo[1,2-a]pyridin-3-yl]-N-cyclopropyl-2-(difluoromethoxy)-6-methoxy-benzamide]: the concentration for a half-maximal effect (EC50) in experiment [1] (setting [4]) lay in the range of 1000 to 5000 nM. Also, the IC50 in experiment [2] (setting [5]) is above 500 nM. Regarding `COc1cc(-c2cnn3cc(C(C)(C)C#N)ccc23)cc(OC(F)F)c1C(=O)N[C@@H]1C[C@H]1F` (single isomer, unassigned) [Cpd 257, 4-[6-(1-cyano-1-methyl-ethyl)pyrazolo[1,5-a]pyridin-3-yl]-2-(difluoromethoxy)-N-(2-fluorocyclopropyl)-6-methoxy-benzamide], in experiment [1] (setting [6]), the EC50 lay in the range of 100 to 1000 nM. For the compound `COc1cc(-c2cnn3cc(C(C)(C)C#N)ccc23)cc(OC(F)F)c1C(=O)N[C@@H]1C[C@H]1F` (single isomer, unassigned) [Cpd 258, 4-[6-(1-cyano-1-methyl-ethyl)pyrazolo[1,5-a]pyridin-3-yl]-2-(difluoromethoxy)-N-(2-fluorocyclopropyl)-6-methoxy-benzamide], the EC50 in experiment [1] (read-out: TNFα EC50, human MdM, LPS 200 ng/mL, supernatant after 20 h, inhibition of TNFα) was in the range of 100 to 1000 nM. For `COc1cc(-c2cnn3cc(C(C)(C)C#N)ccc23)cc(OC(F)F)c1C(=O)N[C@@H]1C[C@@H]1F` [Cpd 219, 4-[6-(1-cyano-1-methyl-ethyl)pyrazolo[1,5-a]pyridin-3-yl]-2-(difluoromethoxy)-N-[(1R,2S)-2-fluorocyclopropyl]-6-methoxy-benzamide], the EC50 in experiment [1] (setting [6]) was 100 to 1000 nM. Same read-out and setting: next, `[2H]C([2H])([2H])C(C#N)(c1ccc2c(-c3cc(OC)c(C(=O)N[C@@H]4C[C@@H]4F)c(OC(F)F)c3)cnn2c1)C([2H])([2H])[2H]` [Cpd 275, 4-[6-[1-cyano-2,2,2-trideuterio-1-(trideuteriomethyl)ethyl]pyrazolo[1,5-a]pyridin-3-yl]-2-(difluoromethoxy)-N-[(1R,2S)-2-fluorocyclopropyl]-6-methoxy-benzamide]: 100 to 1000 nM.

In general, EC50 refers to the concentration giving half of the maximal effect. Usually IC50 stands for the concentration at which inhibition is half-maximal. Low readings indicate inhibition by little substance, high ones a need for much substance.

The record behind these values is US12391679B2, “Benzamide-substituted bicyclic imidazo- and pyrazolo-fused -pyridine, -pyrimide, and -pyridazine compounds for treatment of inflammatory diseases” (ONCO3R Therapeutics BV, priority 2019, dated 2025).
